{"source": "paper PMC6533572", "about": "“Elucidation of the Differences in Cinobufotalin’s Pharmacokinetics Between Normal and Diethylnitrosamine-Injured Rats: The Role of P-Glycoprotein” (Frontiers in Pharmacology, 2019)", "key": {"[1]": {"test_system": "HepG2 cells", "test": "Wound healing assay, HepG2 cells", "type": "cell-based", "settings": "40, 60 and 80 nM, 24 h", "experimental": "Hepatocellular cancer cells (HepG2 and Huh-7) were purchased from the cell bank of the Chinese Academy of Science (Shanghai, China). These cells were cultured in Dulbecco’s modified Eagle’s medium (DMEM) containing 10% fetal bovine serum (FBS), penicillin (100 units/mL) and streptomycin (100 units/mL) in a humidified atmosphere with 5% CO2 at 37 °C.\nWound healing assay was used to investigate the effect of cinobufotalin on the migration of HepG2 and Huh-7 cells. Cells were seeded into 6-well plates at the density of 4 × 10^5 cells/well and maintained until reaching monolayer confluence. The cells were scratched using 20-μL pipette tips and rinsed with PBS buffer for three times. And then the cells were cultured in serum-free medium containing different concentrations of cinobufotalin (40, 60, 80 nM). After treatment with cinobufotalin for different lengths of time (0 and 24 h), the width of wound was measured and the images of cells were acquired using inverted microscope (Leica, Wetzlar, German). The rate of wound healing = [(the wound width of 0 h - 24 h)/0 h wound width] × 100%. All experiments were performed in triplicate."}, "[2]": {"molecular_target": "T1, P-glycoprotein (P-gp) (Homo sapiens, UniProt P08183)", "T1 construct": "expressed in transfected cells; host or cells: MDCK II (Madin Darby canine kidney) cells stably transfected with the MDR1 gene", "T1 sequence (P08183 whole entry)": "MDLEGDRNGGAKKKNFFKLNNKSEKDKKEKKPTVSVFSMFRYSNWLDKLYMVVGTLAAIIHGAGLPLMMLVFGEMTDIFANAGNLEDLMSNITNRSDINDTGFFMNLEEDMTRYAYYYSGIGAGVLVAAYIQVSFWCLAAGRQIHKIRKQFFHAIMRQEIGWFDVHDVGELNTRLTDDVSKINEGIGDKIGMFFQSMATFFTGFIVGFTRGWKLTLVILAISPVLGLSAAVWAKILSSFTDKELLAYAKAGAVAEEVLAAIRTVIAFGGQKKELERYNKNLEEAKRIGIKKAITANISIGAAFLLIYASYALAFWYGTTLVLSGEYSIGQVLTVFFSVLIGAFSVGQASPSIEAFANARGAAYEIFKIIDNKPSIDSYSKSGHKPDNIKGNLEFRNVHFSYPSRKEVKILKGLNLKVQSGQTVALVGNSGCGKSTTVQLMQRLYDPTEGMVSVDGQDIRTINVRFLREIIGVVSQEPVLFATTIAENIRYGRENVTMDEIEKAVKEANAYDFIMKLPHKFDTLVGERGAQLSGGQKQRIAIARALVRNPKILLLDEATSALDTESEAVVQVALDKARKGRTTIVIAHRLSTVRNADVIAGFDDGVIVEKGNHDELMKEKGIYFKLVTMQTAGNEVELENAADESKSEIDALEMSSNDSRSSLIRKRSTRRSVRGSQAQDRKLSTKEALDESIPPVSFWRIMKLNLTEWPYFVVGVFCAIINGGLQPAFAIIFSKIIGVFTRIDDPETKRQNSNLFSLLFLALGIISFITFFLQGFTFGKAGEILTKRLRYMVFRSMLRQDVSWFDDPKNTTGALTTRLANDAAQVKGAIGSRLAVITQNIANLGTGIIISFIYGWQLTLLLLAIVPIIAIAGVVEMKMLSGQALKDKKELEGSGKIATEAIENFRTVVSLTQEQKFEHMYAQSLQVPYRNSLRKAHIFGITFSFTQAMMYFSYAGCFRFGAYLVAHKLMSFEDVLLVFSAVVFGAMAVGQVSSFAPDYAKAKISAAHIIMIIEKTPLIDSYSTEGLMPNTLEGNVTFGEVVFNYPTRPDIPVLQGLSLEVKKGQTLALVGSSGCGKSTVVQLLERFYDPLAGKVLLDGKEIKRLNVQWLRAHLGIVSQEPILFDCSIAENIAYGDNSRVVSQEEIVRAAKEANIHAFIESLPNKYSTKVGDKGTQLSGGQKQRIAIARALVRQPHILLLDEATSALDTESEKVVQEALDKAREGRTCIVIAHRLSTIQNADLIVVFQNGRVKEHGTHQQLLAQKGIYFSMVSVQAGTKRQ", "test": "Bidirectional transport across MDCK-MDR1 cell monolayers", "type": "in vitro ADME", "settings": "for Net flux ratio: ER MDCK-MDR1 / ER MDCK II, cinobufotalin 20 μM; for Papp A→B at 120 min, 20 μM / Papp B→A at 120 min, 20 μM / efflux ratio at 120 min, 20 μM: dog, MDCK-MDR1, cinobufotalin 20 μM; for efflux ratio at 120 min, 20 μM: read-out: ER", "experimental": "MDCK II and MDCK-MDR1 cells were seeded into 12-well Transwell polycarbonate membrane inserts (12 mm diameter inserts, 0.4 μm pore size, Corning Costar) at a density of 6 × 10^5 cells/well. Cells were cultured at 37°C under 5% CO2 in DMEM with 10% FBS, and the culture medium was refreshed every other day. Experiments were conducted when the tight junctional cell monolayer formed. First, the cells were washed three times using 37°C preheated HBSS buffer (pH = 7.4) and preincubated in a shaking incubator for 30 min at 37°C. Then the transport studies were initiated after the blank HBSS buffer and dosing solution (HBSS buffer containing cinobufotalin at a final concentration of 20 μM) were added to the receiver compartment and donor compartment, respectively. Verapamil, if used, was added to both compartment during the incubated period. The volumes of the apical side (AP) and basolateral side (BL) were 0.5 and 1.5 mL, respectively. Samples (100 μL) were taken from the receiver compartment every 30 min during the incubation period of 120 min, and then replaced with the same volume of […]. At the end of the incubated period, aliquots of 100 μL were withdrawn from the donor compartment to calculated mass balance. All samples were mixed with 50 μL acetonitrile and centrifuged at 4°C (12,000 g, 10 min. The supernatant was subjected to UPLC-QTOF/MS for analyses.\nThe apparent permeability (cm/s) from apical-to-basal (Papp,AP-BL) and basal-to-apical (Papp,BL-AP) were calculated according to the following Equation (4), where dQ/dt is the rate of drug permeation (nmol/s), A is the area of polycarbonate membrane (A = 1.12 cm^2), and C0 is the initial concentration of cinobufotalin in the donor compartment.\nThe efflux ratio (ER) and net flux ratio were calculated according to Equations (5) and (6) as described in our previous research ([Sun et al., 2017]).\n(5) ER=Papp, BL−AP/Papp, AP−BL\n(6) Net flux ratio=ERMDCK−MDRI/ERMDCK II"}, "[3]": {"test": "Liver distribution of cinobufotalin in normal and DEN-injured rats", "type": "in vivo", "settings": "male, Sprague Dawley, rat, iv, 2.5 mg/kg, i.v. 2.5 mg/kg, after the last sampling time point (24 h), read-out: concentration of cinobufotalin in liver tissues", "experimental": "For PK studies, the rats were randomly divided into two experimental groups (10 rats for normal rats group and 20 rats for DEN-injured rats group, considering the animal casualties during the modeling process). HCC rat model was established by intraperitoneal administration of 50 mg/kg DEN two times per week ([Fuchs et al., 2014]), and the control group rats were treated with normal saline in the same way. After 14 weeks of administration, three rats were randomly selected and anesthetized by anesthesia cocktail (Ketamine 50 mg/mL, Xylazine 3.3 mg/mL and Acetopromazine 3.3 mg/mL). Then the liver was taken out and photographed to determine whether the animal model was successfully constructed.\nBefore PK experiment, a cannula was introduced into the jugular vein of the anesthetized rat and administrated carprofen subcutaneously after the surgery. After observation for 24 h, when the activity and excretion of rats were normal, rats were dosed with cinobufotalin at 2.5 mg/kg through jugular vein cannula. Blood samples (200 μL) were withdrawn at each pointed time (5, 10, 15, 30, 45 min, and 1, 1.5, 2, 4, 6, 8, 12, and 24 h) after dosing, and whole blood was transferred into tubes pre-treated with heparin (1000 U/mL). Then an equal volume of saline was injected into rats through jugular vein cannula immediately. […]"}, "[4]": {"design": "method as in Bick et al., 2002; Bi et al., 2016", "settings": "ref Bick et al., 2002, Bi et al., 2016; cited from earlier work"}, "[5]": {"settings": "pH 7.4, with verapamil (concentration not stated), in both compartments, with verapamil"}}, "note": "Like-named read-outs stand apart in the source and are kept apart here."}
{"smiles": "CC(=O)O[C@H]1[C@H]2O[C@]23[C@@H]2CC[C@]4(O)C[C@@H](O)CC[C@]4(C)[C@H]2CC[C@]3(C)[C@H]1c1ccc(=O)oc1", "note": "[Cinobufotalin]", "values": [{"measurement": "migration of HepG2 cells (wound healing)", "setting": "[1]", "value": "significantly attenuated"}, {"measurement": "Net flux ratio", "setting": "[2]", "value": 2.1}, {"measurement": "Net flux ratio", "setting": "[2]; with verapamil", "value": 1.0}, {"measurement": "decrease of net flux ratio when verapamil was used", "setting": "[2]; MDCK-MDR1 vs MDCK II, with verapamil", "value": 50.7, "unit": "%"}, {"measurement": "Papp A→B at 120 min, 20 μM", "setting": "[2]; [5]", "value": "32.1 ± 1.5", "unit": "×10⁻⁶ cm/s"}, {"measurement": "Papp B→A at 120 min, 20 μM", "setting": "[2]; [5]", "value": "34.5 ± 2.3", "unit": "×10⁻⁶ cm/s"}, {"measurement": "efflux ratio at 120 min, 20 μM", "setting": "[2]; [5]", "value": 1.1}, {"measurement": "Papp A→B at 120 min, 20 μM", "setting": "[2]; pH 7.4", "value": "19.4 ± 1.3", "unit": "×10⁻⁶ cm/s"}, {"measurement": "Papp B→A at 120 min, 20 μM", "setting": "[2]; pH 7.4", "value": "42.4 ± 1.5", "unit": "×10⁻⁶ cm/s"}, {"measurement": "efflux ratio at 120 min, 20 μM", "setting": "[2]; pH 7.4", "value": 2.2}, {"measurement": "P-gp substrate identification", "setting": "[2]; net flux ratio higher than 2 and reduction more than 50% with verapamil", "value": "substrate of P-gp"}, {"measurement": "concentration at 24 h", "setting": "[3]; DEN-injured rats", "value": "21 ± 2.7", "unit": "ng/mL"}, {"measurement": "concentration at 24 h", "setting": "[3]; normal rats", "value": "39.3 ± 4.9", "unit": "ng/mL"}, {"measurement": "toxicity on over dose", "setting": "[4]", "value": "cardiotoxicity and neurotoxicity"}]}
